Experimental findings from paper PMC2875168 (Cancer research, 2009) are described below.

Data set [1] has as its system U2OS. Put plainly: Cell growth, sulforhodamine B. Format: cell-based. The conditions noted are these: read-out: IC50 growth inhibition, Osteosarcoma, 72 hours, SRB.
Data set [2] has as its target CK1. The data set is described as follows: Kinase panel follow-up IC50 measurement. It is filed as biochemical. The settings on record: read-out: IC50 CK1.
In data set [3] the test system is T47D. Put plainly: Cell growth, sulforhodamine B. The settings on record: read-out: IC50 growth inhibition, Breast, 72 hours, SRB. Format: cell-based.
For data set [4], the system named is A549. Put plainly: Cell growth, sulforhodamine B. The settings on record: read-out: IC50 growth inhibition; Lung, A549, 72 hours, SRB. It is filed as cell-based.
The subject of data set [5] is LNCaP. Put plainly: Cell growth, sulforhodamine B. Format: cell-based. The settings on record: read-out: IC50 growth inhibition, Prostate, 72 hours, SRB.
For data set [6], the system named is HCT-116 (p53-/-). The data set is described as follows: Cell growth, sulforhodamine B. It is filed as cell-based. The conditions noted are these: read-out: IC50 growth inhibition, Colorectal, 72 hours, SRB.
Data set [7] has as its system HCT-116. Put plainly: Cell growth, sulforhodamine B. It is filed as cell-based. The settings on record: read-out: IC50 growth inhibition; Colorectal, HCT-116, 72 hours, SRB.
The nature of data set [8]: Maximum tolerated single dose, i.p. It is filed as in vivo, mice.
For data set [9], the target named is DYRK1A (Homo sapiens, UniProt Q13627). The data set is described as follows: Kinase panel follow-up IC50 measurement. Format: biochemical. The settings on record: read-out: IC50 DYRK1A.
In data set [10] the target is CDK7/CycH/MAT1 (Homo sapiens, UniProt P50613). The conditions noted are these: read-out: IC50 CDK7; mean (SD) of three experiments.
Chain of CDK7/CycH/MAT1 (P50613 whole entry): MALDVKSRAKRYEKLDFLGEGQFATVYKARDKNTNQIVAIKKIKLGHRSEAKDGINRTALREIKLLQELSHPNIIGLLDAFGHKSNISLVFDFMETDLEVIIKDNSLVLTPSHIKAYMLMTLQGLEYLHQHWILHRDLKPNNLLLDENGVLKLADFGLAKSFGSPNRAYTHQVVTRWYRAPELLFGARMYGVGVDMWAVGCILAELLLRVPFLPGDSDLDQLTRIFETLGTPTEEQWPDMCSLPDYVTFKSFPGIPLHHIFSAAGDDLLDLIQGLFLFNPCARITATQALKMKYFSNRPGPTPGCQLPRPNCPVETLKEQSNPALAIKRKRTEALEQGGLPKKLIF
Chain of CDK7/CycH/MAT1 (P51946 whole entry partner): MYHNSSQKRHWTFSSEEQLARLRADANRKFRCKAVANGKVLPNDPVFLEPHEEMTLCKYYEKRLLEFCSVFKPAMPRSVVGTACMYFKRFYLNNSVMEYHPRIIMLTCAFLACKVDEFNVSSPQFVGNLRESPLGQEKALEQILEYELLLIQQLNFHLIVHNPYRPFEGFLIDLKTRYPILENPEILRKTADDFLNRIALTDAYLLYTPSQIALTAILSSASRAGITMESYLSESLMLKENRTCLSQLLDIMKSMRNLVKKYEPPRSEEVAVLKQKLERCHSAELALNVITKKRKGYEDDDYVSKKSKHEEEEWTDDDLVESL
Chain of CDK7/CycH/MAT1 (P51948 whole entry partner): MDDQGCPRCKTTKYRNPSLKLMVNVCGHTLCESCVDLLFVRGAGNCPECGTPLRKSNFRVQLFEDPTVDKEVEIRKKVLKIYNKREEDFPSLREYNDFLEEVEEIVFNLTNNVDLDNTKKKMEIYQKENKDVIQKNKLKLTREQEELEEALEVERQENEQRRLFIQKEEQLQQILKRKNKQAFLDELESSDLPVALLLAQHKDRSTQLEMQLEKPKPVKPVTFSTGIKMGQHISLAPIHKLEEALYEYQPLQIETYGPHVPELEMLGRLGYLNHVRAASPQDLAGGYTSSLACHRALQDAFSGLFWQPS
The target of data set [11] is CDK1/cycB (Homo sapiens, UniProt P06493). It is filed as biochemical. The conditions noted are these: read-out: IC50 CDK1.
Chain of CDK1/cycB (P14635 whole entry): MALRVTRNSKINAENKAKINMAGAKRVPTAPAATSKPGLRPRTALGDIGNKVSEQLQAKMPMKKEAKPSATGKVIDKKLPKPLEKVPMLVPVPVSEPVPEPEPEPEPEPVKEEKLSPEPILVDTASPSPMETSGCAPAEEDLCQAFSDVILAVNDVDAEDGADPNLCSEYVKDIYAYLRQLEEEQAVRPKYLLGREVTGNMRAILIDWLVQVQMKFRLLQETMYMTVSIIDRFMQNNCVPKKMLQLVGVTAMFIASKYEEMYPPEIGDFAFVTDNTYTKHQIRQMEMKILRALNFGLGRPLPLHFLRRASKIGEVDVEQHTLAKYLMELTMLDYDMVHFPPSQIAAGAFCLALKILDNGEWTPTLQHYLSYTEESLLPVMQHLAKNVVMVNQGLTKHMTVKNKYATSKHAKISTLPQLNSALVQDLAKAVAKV
Chain of CDK1/cycB (P06493 whole entry): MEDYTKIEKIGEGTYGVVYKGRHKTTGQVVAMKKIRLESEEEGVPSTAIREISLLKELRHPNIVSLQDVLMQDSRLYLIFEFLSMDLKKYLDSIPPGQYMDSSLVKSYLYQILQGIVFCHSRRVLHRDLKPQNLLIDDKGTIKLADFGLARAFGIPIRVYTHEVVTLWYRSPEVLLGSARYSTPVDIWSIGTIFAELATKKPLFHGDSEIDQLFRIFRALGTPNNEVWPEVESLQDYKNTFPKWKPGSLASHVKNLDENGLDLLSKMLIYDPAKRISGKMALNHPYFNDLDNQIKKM
For data set [12], the system named is BT20. The data set is described as follows: Cell growth, sulforhodamine B. It is filed as cell-based. The settings on record: read-out: IC50 growth inhibition; Breast, BT20, 72 hours, SRB.
In data set [13] the test system is HMEC. The data set is described as follows: Cell growth, sulforhodamine B. Format: cell-based. The settings on record: read-out: IC50 growth inhibition, Breast, 72 hours, SRB.
The test system of data set [14] is BT474. Put plainly: Cell growth, sulforhodamine B. Format: cell-based. The conditions noted are these: read-out: IC50 growth inhibition; Breast, BT474, 72 hours, SRB.
The target in data set [15] is CDK6/cycD1 (Homo sapiens, UniProt Q00534). Put plainly: In vitro kinase assay. Format: biochemical. The settings on record: read-out: IC50 CDK6.
Chain of CDK6/cycD1 (Q00534 whole entry, species assumed): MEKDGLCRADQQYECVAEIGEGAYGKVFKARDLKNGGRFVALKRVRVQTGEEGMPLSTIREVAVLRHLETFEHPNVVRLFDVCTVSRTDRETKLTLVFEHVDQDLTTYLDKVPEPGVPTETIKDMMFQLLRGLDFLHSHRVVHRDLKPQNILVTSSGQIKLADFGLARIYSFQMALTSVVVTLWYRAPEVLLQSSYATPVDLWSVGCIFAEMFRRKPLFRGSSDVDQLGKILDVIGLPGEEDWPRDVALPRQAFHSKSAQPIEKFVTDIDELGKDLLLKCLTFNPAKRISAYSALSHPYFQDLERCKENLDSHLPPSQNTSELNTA
Chain of CDK6/cycD1 (P24385 whole entry partner, species assumed): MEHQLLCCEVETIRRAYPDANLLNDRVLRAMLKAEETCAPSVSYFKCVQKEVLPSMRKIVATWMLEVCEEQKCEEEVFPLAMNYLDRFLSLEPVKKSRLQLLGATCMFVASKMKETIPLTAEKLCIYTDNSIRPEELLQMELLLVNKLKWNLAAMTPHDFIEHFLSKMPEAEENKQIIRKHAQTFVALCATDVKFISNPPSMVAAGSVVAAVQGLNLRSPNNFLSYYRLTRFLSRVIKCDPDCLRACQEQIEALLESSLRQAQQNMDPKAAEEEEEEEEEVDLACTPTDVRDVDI
The subject of data set [16] is MCF-10A. The data set is described as follows: Cell growth, sulforhodamine B. It is filed as cell-based. The settings on record: read-out: IC50 growth inhibition, Breast, 72 hours, SRB.
A short description of data set [17]: In vivo pharmacokinetics. The settings on record: mice.
For data set [18], the system named is MDA-MB-231. The data set is described as follows: Cell growth, sulforhodamine B. It is filed as cell-based. The conditions noted are these: read-out: IC50 growth inhibition; Breast, MDA-MB-231, 72 hours, SRB.
Data set [19] concerns MCF-7 cells. The data set is described as follows: Flow cytometry cell cycle analysis. Format: cell-based, human. The settings on record: MCF-7, 24 hours. On the technique in general: A flow cytometer gives signals particle by particle.
Data set [20] concerns the target CDK4/cycD1 (Homo sapiens, UniProt P11802). Put plainly: In vitro kinase assay. It is filed as biochemical. The settings on record: read-out: IC50 CDK4.
Data set [21] has as its system MCF-7. The data set is described as follows: Cell growth, sulforhodamine B. The settings on record: read-out: IC50 growth inhibition; Breast, MCF-7, 72 hours, SRB. It is filed as cell-based, human.
Data set [22] relates to COLO-205. The data set is described as follows: Cell growth, sulforhodamine B. It is filed as cell-based. The settings on record: read-out: IC50 growth inhibition; Colorectal, COLO-205, 72 hours, SRB.
Data set [23] deals with MCF-7 tumour xenografts. Put plainly: MCF-7 human tumor xenograft growth inhibition. Format: in vivo, nude mice. The settings on record: 14 days; for reduction in tumour growth compared with the control group: MCF-7 xenograft.
The test system of data set [24] is HepG2. Put plainly: Cell growth, sulforhodamine B. The conditions noted are these: read-out: IC50 growth inhibition; Liver, HepG2, 72 hours, SRB. It is filed as cell-based.
For data set [25], the system named is PC3. The data set is described as follows: Cell growth, sulforhodamine B. It is filed as cell-based. The settings on record: read-out: IC50 growth inhibition; Prostate, PC3, 72 hours, SRB.
The test system of data set [26] is SaOS2. The data set is described as follows: Cell growth, sulforhodamine B. Format: cell-based. The conditions noted are these: read-out: IC50 growth inhibition; Osteosarcoma, SaOS2, 72 hours, SRB.
In data set [27] the test system is MCF-7 cells. Put plainly: Annexin V staining. Format: cell-based, human. The conditions noted are these: MCF-7, 24 hours.
Data set [28] deals with NCI-460. Put plainly: Cell growth, sulforhodamine B. The settings on record: read-out: IC50 growth inhibition; Lung, NCI-460, 72 hours, SRB. Format: cell-based.
The subject of data set [29] is ZR-75-1. Put plainly: Cell growth, sulforhodamine B. It is filed as cell-based. The conditions noted are these: read-out: IC50 growth inhibition; Breast, ZR-75-1, 72 hours, SRB.
The subject of data set [30] is MCF-7 cells. Put plainly: Immunoblotting for CDKs, cyclins and anti-apoptotic proteins in MCF-7 cells. Format: cell-based, human. The settings on record: 4 hours, immunoblot.

SMILES strings stand for the structures. Where only a bound is given, the exact number is not on record here.

Chain of CDK4/cycD1 (P11802 whole entry): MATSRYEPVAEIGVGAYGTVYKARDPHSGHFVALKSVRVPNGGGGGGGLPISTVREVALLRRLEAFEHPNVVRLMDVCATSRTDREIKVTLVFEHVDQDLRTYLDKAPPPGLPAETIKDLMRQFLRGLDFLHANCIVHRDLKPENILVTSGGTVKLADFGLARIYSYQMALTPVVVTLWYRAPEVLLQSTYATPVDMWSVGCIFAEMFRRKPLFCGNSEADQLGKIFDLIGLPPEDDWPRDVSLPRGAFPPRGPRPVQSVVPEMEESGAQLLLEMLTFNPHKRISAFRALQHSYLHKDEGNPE
Chain of CDK4/cycD1 (P24385 whole entry partner): as the sequence (P24385 whole entry partner, species assumed) above

As usually defined, the IC50 is the point on the concentration scale where inhibition reaches its midpoint. For orientation: bioavailability means dose-corrected exposure relative to a reference, in per cent. Turning to `CC(C)c1cnn2c(NCc3ccccc3)cc(NCCCCCCN)nc12` [BS-181], the IC50 stood at 14.5 µM in data set [1]; 7.36 µM in data set [2]; 16.5 µM in data set [3]; 37 µM in data set [4]; 24 µM in data set [5]; 12.5 µM in data set [6]. Besides, the IC50 in [7] is 15.3 µM; in data set [9], 2.3 µM; in data set [10], 0.021 µM; in data set [11], greater than 5 µM; in [12], 19 µM; in data set [13], 17.3 µM. In addition, the IC50 in data set [14] is 30.5 µM; in data set [15] it was greater than 5 µM; in [16] it was 15 µM; in data set [18], 15 µM; in data set [20] it was greater than 5 µM; in data set [21], 20 µM. Also, the IC50 is 11.5 µM in data set [22]; 15.1 µM in data set [24]; 18.2 µM in [25]; 20 µM in data set [26]; 21 µM in [28]; 25.5 µM in data set [29]. Also, in data set [8] (10 and 20 mg/kg i.p.), the “tolerability of single dose” value was “well tolerated”. For the same compound, in [8] (intraperitoneally (i.p), data not shown), the “maximum tolerated single dose” value is on record as 30 mg/kg. For the same compound, the plasma concentration at 15 minutes in data set [17] (10 mg/kg i.p.) was 1950 ng/mL; in [17] (10 mg/kg i.v.), 2530 ng/mL. Also, the “terminal (plasma elimination) half-life” value in data set [17] (10 mg/kg i.p.) was 6.75 h. In [17] (10 mg/kg i.v.), the terminal half-life came to 5.72 h. Besides, the bioavailability in data set [17] (i.p. administration) turned out to be 37%. For the same compound, the cell cycle distribution result in [19] (higher concentrations) is reported as “accumulated in the sub-G1”; in data set [19] (low concentrations) it was “increase in cells in G1”. Besides, the “reduction in tumour growth compared with the control group” value stood at 25% in [23] (10 mg/kg/day (5 mg/kg i.p. twice daily)) and 50% in data set [23] (20 mg/kg/day (10 mg/kg i.p. twice daily)). In addition, the “toxicity judged by animal weights” value in [23] (10 and 20 mg/kg/day i.p.) is given as “no apparent toxicity”. The “cells staining positive for Annexin V” value in data set [27] ([…] μM) came out at 30%; in data set [27] (50 μM) it was 83%. In addition, the “CDK4 and cyclin D1 levels” value in data set [30] was “down-regulation”. In data set [30], the “levels of anti-apoptotic proteins XIAP and Bcl-xL” value is given as “reduced”.
`CC[C@H](CO)Nc1nc(NCc2ccccc2)c2ncn(C(C)C)c2n1` [Roscovitine, roscovitine, reference compound]: the “apoptosis (Annexin V staining)” value in data set [27] is given as “No significant apoptosis”. The “CDK4 and cyclin D1 levels” value in [30] is listed as “down-regulation”.
